Test results as given in US20220023294A1, “SYNTHETIC LETHALITY AND THE TREATMENT OF CANCER” (PACYLEX PHARMACEUTICALS INC., priority 2011, published 2022).

Tests used:
Ramos B lymphoma cells = experiment: Survival of Ramos cells transfected with pcDNA3.1-V5-NMT2 in the presence of TrisDBA (trypan blue exclusion); format: cell-based, human; conditions: TrisDBA 5 ug/ml, 24 hours
Procedure: B cells were transfected using the Neon® transfection system (Life technologies) following manufacturer's instructions and optimized protocol for Ramos B cells transfection (pulse voltage 1,300V; pulse width 20 ms, 2 pulses and 7.7.10^6 cells/mL) adapted for 100 μL tips. Classically, two transfections were pulled to obtained enough living cells to perform a viability assay.
(§1) B and T cell viability was measured using the trypan blue exclusion method. Cells were grown in confluency conditions (2×10^6 cells/mL maximum) assuring the minimum basal apoptosis. After incubation with NMT inhibitors, about 20 000 cells (10 μL) were incubated with 10 μL of TC10™ Trypan Blue Dye (Biorad) for 15 min. Cell viability was quantified using the TC10™ automated cell counter (Biorad).
In this example, transfection of Ramos B lymphoma cells (which, as shown herein, expresses NMT1) with pcDNA3.1-V5-NMT2 increased survival to TrisDBA (5 ug/ml) 2.5 fold vs control cells transfected with empty plasmid vector. In FIG. 6, 20×10^6 Ramos B lymphoma cells were transfected with 32 μg of DNA (pcDNA3.1-V5-empty or pcDNA3.1-V5-NMT2) using the Neon Transfection System (Invitrogen) following the recommended protocol for Ramos cell line (1,350 Volt, 30 ms). […] After a PBS wash, cells were resuspended and grown in RPMI containing TrisDBA (5 ug/ml) for 24 hours then counted using the trypan blue exclusion method (Panel A). […]

[1] = tested on: B cell lymphomas and T cell leukemias; experiment: Cell viability assay (trypan blue exclusion) after incubation with NMT inhibitors; format: cell-based, human; conditions: 24 h, increasing concentration, control adjusted to 100%
Procedure: Tris dibutylbenzinylidene acetone paladium (TrisDBA) was a kind gift of Dr. Arbiser. Cells were incubated at increasing concentrations for 24 hours with TrisDBA (or DMSO for control) or for 24 and 48 hours with DDD85646.
as §1
FIG. 2 depicts the sensitivity of various B cell lymphomas and T cell leukemias to the NMT inhibitors tris-dibenzylideneacetone-dipalladium (Tris-DBA). Various B and T cells were incubated for 24 h with increasing concentration of Tris DBA. Cell viability was measured using trypan blue exclusion method and adjusted to 100% for control.

NMT2 = target: T1, NMT2 (Homo sapiens, UniProt O60551); experiment: In vitro NMT activity (peptide myristoylation) assay with purified recombinant enzyme; format: biochemical; conditions: purified recombinant NMT2, radiolabeled myristoyl peptide on phosphocellulose paper
T1 construct: His (N); made in house
T1 sequence (O60551 1-498): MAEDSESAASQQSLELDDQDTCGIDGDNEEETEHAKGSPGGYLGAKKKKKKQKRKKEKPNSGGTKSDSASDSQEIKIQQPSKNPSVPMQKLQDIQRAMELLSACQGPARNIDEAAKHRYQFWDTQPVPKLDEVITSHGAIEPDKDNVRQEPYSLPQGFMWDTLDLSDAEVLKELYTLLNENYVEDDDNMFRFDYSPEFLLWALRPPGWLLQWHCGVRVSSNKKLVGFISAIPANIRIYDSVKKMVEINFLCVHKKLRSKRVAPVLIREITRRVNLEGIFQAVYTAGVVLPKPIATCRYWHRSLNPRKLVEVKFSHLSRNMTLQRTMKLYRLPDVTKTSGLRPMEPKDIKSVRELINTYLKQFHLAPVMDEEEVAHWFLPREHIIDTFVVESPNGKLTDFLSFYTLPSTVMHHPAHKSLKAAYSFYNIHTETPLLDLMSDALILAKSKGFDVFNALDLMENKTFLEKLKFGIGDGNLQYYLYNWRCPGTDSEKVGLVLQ
Description: (§2) N-myristoyltransferase activity assay protocol was adapted from Raju, R. V., and Sharma, R. K. (1999) Preparation and assay of myristoyl-CoA:protein N-myristoyltransferase. Methods Mol Biol 116, 193-211. [^3H] myristoyl-CoA was freshly synthesized for each experiment, as previously described by Towler, D., and Glaser, L. (1986) Protein fatty acid acylation: enzymatic synthesis of an N-myristoylglycyl peptide. Proc Nal Acad Sci USA 83, 2812-2816. Briefly, cells were resuspended in 0.25 M sucrose buffer (50 mM NaH2PO4, pH 7.4) and subjected to 2 rounds of sonication at level 6.0 on a Branson Sonicator. […] Discs were washed (washing buffer: 25 mM Tris buffer, pH 7.4) to remove the residual radioactivity ([^3H]-myristate and [^3H]-myristoyl-CoA) while [^3H]-myristoyl-peptide is retained on the phosphocellulose paper. Radioactivity was quantified by liquid scintillation counting and converted into pMol of myristoylated peptide (Raju, R. V., and Sharna, R. K. (1999) Preparation and assay of myristoyl-CoA:protein N-myristoyltransferase. Methods Mol Biol 116, 193-211
(§3) NMT activity was assayed using a peptide myristoylation assay with purified recombinant NMT1 and NMT2. NMT activity was calculated from the amount of radiolabeled myristoyl peptide produced and detected on phosphocellulose paper (adapted from King et al. 1991, Anal Biochem.).

NMT1 = target: T2, NMT1 (Homo sapiens, UniProt P30419); experiment: as above; format: biochemical; conditions: purified recombinant NMT1, radiolabeled myristoyl peptide on phosphocellulose paper
T2 construct: His (N); made in house
T2 sequence (P30419 1-496): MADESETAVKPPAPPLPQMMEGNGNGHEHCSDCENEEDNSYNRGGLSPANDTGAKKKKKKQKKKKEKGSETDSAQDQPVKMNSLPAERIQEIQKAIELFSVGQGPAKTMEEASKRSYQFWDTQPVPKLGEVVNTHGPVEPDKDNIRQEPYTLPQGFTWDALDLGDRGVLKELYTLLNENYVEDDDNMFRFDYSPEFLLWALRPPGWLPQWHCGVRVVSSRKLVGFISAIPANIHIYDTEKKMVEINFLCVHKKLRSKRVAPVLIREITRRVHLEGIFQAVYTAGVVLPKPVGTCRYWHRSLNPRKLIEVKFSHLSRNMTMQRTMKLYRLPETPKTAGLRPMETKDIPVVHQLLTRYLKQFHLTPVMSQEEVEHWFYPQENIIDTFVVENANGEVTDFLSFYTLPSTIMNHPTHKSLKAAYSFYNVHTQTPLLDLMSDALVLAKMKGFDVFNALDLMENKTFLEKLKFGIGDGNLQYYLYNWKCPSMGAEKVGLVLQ
Description: as §2, §3

## tris-dibenzylideneacetone-dipalladium [Tris-DBA]
Ramos B lymphoma cells
  Increased survival of NMT2-transfected cells vs control cells transfected with empty plasmid vector: 2.5 fold
[1]
  Cell survival curves (sensitivity of B cell lymphomas versus other cells): more sensitive
NMT2
  Inhibition of NMT activity: inhibits NMT in vitro
NMT1
  Inhibition of NMT activity: inhibits NMT in vitro
